Measurements reported in PubChem BioAssay (NCI).
Several values for one entry are separate records, joined by “and”; a condition that tells them apart may be missing. Equal values may be shown once.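 Five concentrations, 48 hours, 96-well plates. GI50 is the concentration that inhibits growth by half. TGI marks complete inhibition of growth.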

Key:
Assay in all cases: inhibition of tumour cell growth, NCI panel, 48 h; in the data active = GI50 below about 0.43 µM; inactive = the rest
EKVX NSCLC = test system: EKVX NSCLC
HOP-62 NSCLC = test system: HOP-62 NSCLC
UACC-257 melanoma = test system: UACC-257 melanoma
DU-145 prostate = test system: DU-145 prostate
SF-268 CNS = test system: SF-268 CNS
SW-620 colon = test system: SW-620 colon
A549 NSCLC = test system: A549 NSCLC
SF-539 CNS = test system: SF-539 CNS
HCC-2998 colon = test system: HCC-2998 colon
CAKI-1 renal = test system: CAKI-1 renal
COLO 205 colon = test system: COLO 205 colon
HCT-15 colon = test system: HCT-15 colon
SK-MEL-28 melanoma = test system: SK-MEL-28 melanoma
MCF7 breast = test system: MCF7 breast
NCI-H460 lung = test system: NCI-H460 lung
OVCAR-5 ovarian = test system: OVCAR-5 ovarian
NCI/ADR-RES ovarian = test system: NCI/ADR-RES ovarian
MALME-3M melanoma = test system: MALME-3M melanoma
ACHN renal = test system: ACHN renal
PC-3 prostate = test system: PC-3 prostate
KM12 colon = test system: KM12 colon
BT-549 breast = test system: BT-549 breast
RXF 393 renal = test system: RXF 393 renal
TK-10 renal = test system: TK-10 renal
NCI-H522 lung = test system: NCI-H522 lung
LOX IMVI melanoma = test system: LOX IMVI melanoma
M14 melanoma = test system: M14 melanoma
HS 578T breast = test system: HS 578T breast
SNB-19 CNS = test system: SNB-19 CNS
MDA-MB-435 = test system: MDA-MB-435
NCI-H23 lung = test system: NCI-H23 lung
UO-31 renal = test system: UO-31 renal
SNB-75 CNS = test system: SNB-75 CNS
SK-OV-3 ovarian = test system: SK-OV-3 ovarian
HT29 colon = test system: HT29 colon
OVCAR-3 ovarian = test system: OVCAR-3 ovarian
T-47D breast = test system: T-47D breast
MOLT-4 leukemia = test system: MOLT-4 leukemia
IGROV1 ovarian = test system: IGROV1 ovarian
SK-MEL-5 melanoma = test system: SK-MEL-5 melanoma
OVCAR-4 ovarian = test system: OVCAR-4 ovarian
HOP-92 NSCLC = test system: HOP-92 NSCLC
U251 CNS = test system: U251 CNS
SF-295 CNS = test system: SF-295 CNS
HCT-116 colon = test system: HCT-116 colon
K-562 leukemia = test system: K-562 leukemia
OVCAR-8 ovarian = test system: OVCAR-8 ovarian
SK-MEL-2 melanoma = test system: SK-MEL-2 melanoma
786-0 renal = test system: 786-0 renal
NCI-H226 lung = test system: NCI-H226 lung
MDA-MB-231 breast = test system: MDA-MB-231 breast
HL-60(TB) leukemia = test system: HL-60(TB) leukemia
SR leukemia = test system: SR leukemia
CCRF-CEM leukemia = test system: CCRF-CEM leukemia
SN12C renal = test system: SN12C renal
RPMI-8226 leukemia = test system: RPMI-8226 leukemia

NCCc1ccc(S(=O)(=O)F)cc1
78.1 µM: TGI (OVCAR-3 ovarian)
> 100 µM: TGI (EKVX NSCLC) | TGI (HOP-62 NSCLC) | TGI (UACC-257 melanoma) | TGI (DU-145 prostate) | TGI (SF-268 CNS) | TGI (SW-620 colon) | TGI (A549 NSCLC) | TGI (HCC-2998 colon) | TGI (CAKI-1 renal) | TGI (COLO 205 colon) | TGI (HCT-15 colon) | TGI (SK-MEL-28 melanoma) | TGI (MCF7 breast) | TGI (NCI-H460 lung) | TGI (OVCAR-5 ovarian) | TGI (NCI/ADR-RES ovarian) | TGI (MALME-3M melanoma) | TGI (ACHN renal) | TGI (PC-3 prostate) | TGI (KM12 colon) | TGI (BT-549 breast) | TGI (TK-10 renal) | TGI (NCI-H522 lung) | TGI (LOX IMVI melanoma) | TGI (M14 melanoma) | TGI (HS 578T breast) | TGI (SNB-19 CNS) | TGI (MDA-MB-435) | TGI (NCI-H23 lung) | TGI (UO-31 renal) | TGI (SNB-75 CNS) | TGI (SK-OV-3 ovarian) | TGI (HT29 colon) | TGI (T-47D breast) | TGI (MOLT-4 leukemia) | TGI (IGROV1 ovarian) | TGI (SK-MEL-5 melanoma) | TGI (OVCAR-4 ovarian) | TGI (U251 CNS) | TGI (SF-295 CNS) | TGI (HCT-116 colon) | TGI (K-562 leukemia) | TGI (OVCAR-8 ovarian) | TGI (SK-MEL-2 melanoma) | TGI (786-0 renal)
70 µM: TGI (SF-539 CNS)
inactive: GI50 (EKVX NSCLC) 43.3 µM | GI50 (HOP-62 NSCLC) 57.8 µM | GI50 (UACC-257 melanoma) > 100 µM | GI50 (DU-145 prostate) 37 µM | GI50 (SF-268 CNS) > 100 µM | GI50 (SW-620 colon) 52.8 µM | GI50 (A549 NSCLC) > 100 µM | GI50 (SF-539 CNS) 14.8 µM | GI50 (HCC-2998 colon) 39.1 µM | GI50 (CAKI-1 renal) 30.3 µM | GI50 (COLO 205 colon) > 100 µM | GI50 (HCT-15 colon) 64.4 µM | GI50 (SK-MEL-28 melanoma) > 100 µM | GI50 (MCF7 breast) 63.5 µM | GI50 (NCI-H460 lung) 62.3 µM | GI50 (OVCAR-5 ovarian) 43.4 µM | GI50 (NCI/ADR-RES ovarian) > 100 µM | GI50 (MALME-3M melanoma) 96.5 µM | GI50 (ACHN renal) 45.9 µM | GI50 (PC-3 prostate) 42.8 µM | GI50 (KM12 colon) > 100 µM | GI50 (BT-549 breast) 27.9 µM | GI50 (RXF 393 renal) 37.8 µM | GI50 (TK-10 renal) 59.3 µM | GI50 (NCI-H522 lung) 73.4 µM | GI50 (LOX IMVI melanoma) 51.1 µM | GI50 (M14 melanoma) > 100 µM | GI50 (HS 578T breast) 82.8 µM | GI50 (SNB-19 CNS) > 100 µM | GI50 (MDA-MB-435) 65.1 µM | GI50 (NCI-H23 lung) > 100 µM | GI50 (UO-31 renal) > 100 µM | GI50 (SNB-75 CNS) > 100 µM | GI50 (SK-OV-3 ovarian) > 100 µM | GI50 (HT29 colon) > 100 µM | GI50 (OVCAR-3 ovarian) 31.1 µM | GI50 (T-47D breast) > 100 µM | GI50 (MOLT-4 leukemia) 32.2 µM | GI50 (IGROV1 ovarian) 71.7 µM | GI50 (SK-MEL-5 melanoma) 59.1 µM | GI50 (OVCAR-4 ovarian) > 100 µM | GI50 (HOP-92 NSCLC) 32.9 µM | GI50 (U251 CNS) 95.1 µM | GI50 (SF-295 CNS) 64.5 µM | GI50 (HCT-116 colon) 53.7 µM | GI50 (K-562 leukemia) 80.7 µM | GI50 (OVCAR-8 ovarian) > 100 µM | GI50 (SK-MEL-2 melanoma) 90.9 µM | GI50 (786-0 renal) 58.2 µM
96.2 µM: TGI (HOP-92 NSCLC)
98.2 µM: TGI (RXF 393 renal)

Cc1ccc(Nc2nccc(N(C)c3ccc4c(C)n(C)nc4c3)n2)cc1S(N)(=O)=O
> 100 µM and > 10 µM and 31.6 µM: TGI (RPMI-8226 leukemia)
> 100 µM: TGI (NCI-H226 lung) | TGI (EKVX NSCLC) | TGI (MDA-MB-231 breast) | TGI (DU-145 prostate) | TGI (SF-268 CNS) | TGI (SW-620 colon) | TGI (A549 NSCLC) | TGI (HCC-2998 colon) | TGI (CAKI-1 renal) | TGI (HCT-15 colon) | TGI (MCF7 breast) | TGI (NCI-H460 lung) | TGI (OVCAR-5 ovarian) | TGI (NCI/ADR-RES ovarian) | TGI (ACHN renal) | TGI (CCRF-CEM leukemia) | TGI (PC-3 prostate) | TGI (SN12C renal) | TGI (SNB-19 CNS) | TGI (UO-31 renal) | TGI (HT29 colon) | TGI (IGROV1 ovarian) | TGI (OVCAR-4 ovarian) | TGI (U251 CNS) | TGI (SF-295 CNS) | TGI (HCT-116 colon) | TGI (K-562 leukemia) | TGI (OVCAR-8 ovarian) | TGI (786-0 renal)
7.66 µM and > 10 µM and 36.6 µM: TGI (BT-549 breast)
> 10 µM and 77.3 µM: TGI (TK-10 renal)
24 µM and > 10 µM and 47.1 µM: TGI (MOLT-4 leukemia)
> 100 µM and > 10 µM and 27 µM: TGI (KM12 colon)
29.6 µM and > 10 µM and > 100 µM: TGI (SK-OV-3 ovarian)
> 100 µM and > 10 µM and 42.5 µM: TGI (HOP-62 NSCLC)
0.781 µM and 0.425 µM and 1.41 µM: GI50 (NCI-H226 lung)
> 100 µM and > 10 µM and 84.2 µM: TGI (SK-MEL-28 melanoma)
> 74.4 µM: TGI (MALME-3M melanoma)
30.6 µM and > 10 µM and 34 µM: TGI (HL-60(TB) leukemia)
> 100 µM and > 10 µM and 77.9 µM: TGI (OVCAR-3 ovarian)
> 100 µM and > 10 µM and 37.9 µM: TGI (SR leukemia)
> 100 µM and > 10 µM and 34.4 µM: TGI (MDA-MB-435)
10.8 µM: TGI (SK-MEL-5 melanoma)
> 10 µM and 51.5 µM: TGI (UACC-257 melanoma)
> 100 µM and > 10 µM and 93.1 µM: TGI (NCI-H23 lung)
39 µM and > 10 µM and 28 µM: TGI (NCI-H522 lung)
inactive: GI50 (EKVX NSCLC) 3.22 µM and 4.11 µM and 15.2 µM | GI50 (HOP-62 NSCLC) 8.64 µM and 1.51 µM and 11.7 µM | GI50 (MDA-MB-231 breast) 3.72 µM and 1.44 µM and 5.88 µM | GI50 (DU-145 prostate) 5.21 µM and 5.4 µM and 11.5 µM | GI50 (HL-60(TB) leukemia) 6.45 µM and 1.94 µM and 7.14 µM | GI50 (SF-268 CNS) 5.26 µM and 3.17 µM and 9.96 µM | GI50 (A549 NSCLC) 4.63 µM and 3.58 µM and 10 µM | GI50 (SF-539 CNS) 0.589 µM and 1.5 µM | GI50 (HCC-2998 colon) > 100 µM and 29.8 µM | GI50 (CAKI-1 renal) 1.43 µM and 4.39 µM | GI50 (HCT-15 colon) 4.04 µM and 2.77 µM and 5.98 µM | GI50 (MCF7 breast) 4.06 µM and 3.1 µM and 6.69 µM | GI50 (NCI-H460 lung) 4.48 µM and 2.76 µM and 6.34 µM | GI50 (OVCAR-5 ovarian) 1.43 µM and 6.49 µM | GI50 (NCI/ADR-RES ovarian) 45.8 µM and 23.1 µM | GI50 (SR leukemia) 4.08 µM and 3.49 µM and 5.95 µM | GI50 (ACHN renal) 4.08 µM and 3.12 µM and 4.98 µM | GI50 (CCRF-CEM leukemia) 4.37 µM and 7.01 µM and 8.07 µM | GI50 (PC-3 prostate) 4.98 µM and 7.27 µM and 7.73 µM | GI50 (KM12 colon) 5.01 µM and 2.6 µM and 5.56 µM | GI50 (BT-549 breast) 1.7 µM and 1.46 µM and 5.02 µM | GI50 (SN12C renal) 3.77 µM and 2.65 µM and 6.38 µM | GI50 (RXF 393 renal) 2.43 µM and 0.634 µM and 2.41 µM | GI50 (TK-10 renal) 2.05 µM and 9.87 µM | GI50 (NCI-H522 lung) 5.33 µM and 4 µM and 10.7 µM | GI50 (LOX IMVI melanoma) 2.88 µM and 0.479 µM and 3.93 µM | GI50 (MDA-MB-435) 3.93 µM and 0.758 µM and 6.37 µM | GI50 (NCI-H23 lung) 4.03 µM and 2.92 µM and 6.49 µM | GI50 (UO-31 renal) 3.13 µM and 0.539 µM and 4.67 µM | GI50 (SNB-75 CNS) 2.39 µM and 1.03 µM and 5.83 µM | GI50 (SK-OV-3 ovarian) 2.93 µM and 4.9 µM and 4.24 µM | GI50 (HT29 colon) 4.03 µM and 0.49 µM and 4.68 µM | GI50 (OVCAR-3 ovarian) 7.93 µM and 6.42 µM and 15.2 µM | GI50 (T-47D breast) 3.91 µM and 1.58 µM and 3.98 µM | GI50 (MOLT-4 leukemia) 4 µM and 2.26 µM and 5.27 µM | GI50 (SK-MEL-5 melanoma) 2.41 µM | GI50 (OVCAR-4 ovarian) 3.43 µM and 0.681 µM and 4.42 µM | GI50 (RPMI-8226 leukemia) 10.8 µM and 2.61 µM and 6.49 µM | GI50 (U251 CNS) 3.35 µM and 0.95 µM and 8.12 µM | GI50 (SF-295 CNS) 3.57 µM and 2.78 µM and 9.92 µM | GI50 (HCT-116 colon) 3.49 µM and 1.7 µM and 5.44 µM | GI50 (K-562 leukemia) 3.05 µM and 0.454 µM and 4.21 µM | GI50 (OVCAR-8 ovarian) 4.8 µM and 3.61 µM and 5.04 µM | GI50 (SK-MEL-2 melanoma) 4.67 µM and 1.46 µM and 4.62 µM | GI50 (786-0 renal) 4.03 µM and 2.8 µM and 5.96 µM
